Measured values taken from the NIST ThermoML archive (doi:10.1016/j.fluid.2014.06.015).
Numbers after ± are expanded uncertainties.

What was measured:
[1] = refractive index (Na D-line) (dimensionless); conditions: 298.15 K; 101.33 kPa; Liquid; Standard Abbe refractometry
[2] = 298.15 K; 101.33 kPa; Liquid; Vibrating tube method

| Compound | refractive index [1] | mass density [2] [kg/m3] |
| --- | --- | --- |
| O [water] | 1.3325 ± 0.0005 | – |
| CCC(C)O (configuration not stated) [butan-2-ol] | 1.3936 ± 0.0005 | 802.35 ± 0.13 |
| OCC(O)CO [glycerol] | 1.4726 ± 0.0005 | 1258.52 ± 0.22 |
| CCC(C)(C)O [2-methylbutan-2-ol] | 1.4026 ± 0.0005 | 804.21 ± 0.24 |
